{
  "source": "patent US10912741B2",
  "about": "“Prevention of liver cancer with safranal-based formulations” (United Arab Emirates University, priority 2019, dated 2021)",
  "type_in_all_cases": "in vivo, albino Wistar rats",
  "key": {"[1]": {"test_system": "placental glutathione s-transferase (GST-p)", "assay": "Immunohistochemical staining of liver sections, GST-p positive foci", "procedure": "(§1) The experimental hepatocarcinogenesis model was developed according to a protocol by Espandiaria et al. that was adapted for our purposes. To initiate and promote hepatocarcinogenesis, diethylnitrosamine (DEN) and 2-acetylaminofluorene (2-AAF) were used, respectively. For hepatocarcinogenesis initiation in this model, a single DEN dose (200 mg/kg b.wt.) dissolved in saline was injected intraperitoneally. After initiation, all rats underwent one period of 5-days fasting, as mitotic proliferative stimuli. To promote hepatocarcinogenesis, 2-acetylaminofluorene (2-AAF) was introduced in the form of six daily intragastric doses (30 mg/kg in 1% Tween 80); two weeks after DEN treatment.\nSafranal at doses of 25 mg/kg by weight (b.wt.) and 50 mg/kg b.wt, was administrated orally to rats. These doses have been reported to suppress chemically-induced oxidative damage in rats. A total of 40 adult male albino Wistar rats were randomly divided into […] (n=8) and were subjected to different treatments. […]\n(§2) For immunohistochemical staining, mounted sections were immersed in sodium citrate buffer (0.1 M, pH 6) and placed in a water bath for 15 minutes to unmask antigen epitopes. […] Ten fields were randomly selected to quantify positive cells, in individual samples (400×). […]"}, "iNOS": {"test_system": "iNOS", "assay": "Immunohistochemical staining of liver sections, iNOS positive cells", "details": "mean±SEM, 8 rats", "procedure": "as §1\n(§3) Safranal at doses of 25 mg/kg by weight (b.wt.) and 50 mg/kg b.wt, was administrated orally to rats. These doses have been reported to suppress chemically-induced oxidative damage in rats. A total of 40 adult male albino Wistar rats were randomly divided into […] (n=8) and were subjected to different treatments. Group 1 (control) was orally administered distilled water (5 ml/kg b.wt.) throughout the experimental duration and were injected with a single dose of saline. Group 2 (Safranal only) was subjected to a safranal dose (50 mg/kg b.wt.) through oral administration for the duration of the experimental period. Hepatocarcinogenesis was induced by DEN and promoted by 2-AAF, as reported previously, in group 3 (HCC). Rats in protective groups (groups 4-5) were treated with low/high doses of saffron-based safranal suspensions, at the beginning of promotion periods and continued for 12 weeks. The low dosage treatment with safranal consisted of 25 mg/kg b.wt., and the high dosage treatment consisted of 50 mg/kg b.wt. The experimental design is illustrated in FIG. 1.\nas §2"}, "[2]": {"test_system": "protein carbonyl (P. carbonyl)", "assay": "Protein carbonyl content in liver homogenate, DEN/2-AAF hepatocarcinogenesis model", "details": "mean±SEM, 8 rats", "procedure": "The experimental hepatocarcinogenesis model was developed according to a protocol by […] et al. that was adapted for our purposes. To initiate and promote hepatocarcinogenesis, diethylnitrosamine (DEN) and 2-acetylaminofluorene (2-AAF) were used, respectively. For hepatocarcinogenesis initiation in this model, a single DEN dose (200 mg/kg b.wt.) dissolved in saline was injected intraperitoneally. After initiation, all rats underwent one period of 5-days fasting, as mitotic proliferative stimuli. To promote hepatocarcinogenesis, 2-acetylaminofluorene (2-AAF) was introduced in the form of six daily intragastric doses (30 mg/kg in 1% Tween 80); two weeks after DEN treatment. […] at doses of 25 mg/kg by weight (b.wt.) and 50 mg/kg b.wt, was administrated orally to rats. These doses have been reported to suppress chemically-induced oxidative damage in rats. A total of 40 adult male albino Wistar rats were randomly divided into […] (n=8) and were subjected to different treatments. Group 1 (control) was orally administered distilled water (5 ml/kg b.wt.) throughout the experimental duration and were injected with a single dose of saline. Group 2 ([…] only) was subjected to a safranal dose (50 mg/kg b.wt.) through oral administration for the duration of the experimental period. Hepatocarcinogenesis was induced by DEN and promoted by 2-AAF, as reported previously, in group 3 (HCC). […] Glutathione (GSH) content was determined by analyzing liver homogenates, according to the method of Van Dooran et al. The assay depends on measuring yellow 5-thiol-2-nitrobenzoate absorbance at 412 nm. Glutathione-S-transferase (GST) activity was determined using the method of Habig et al. GST catalyzes the conjugation of GSH thiol group with 1-Chloro-2,4-dinitrobenzene (CDNB), which can be measured by determining the increase in absorbance at 340 nm. […] CAT decomposes hydrogen peroxide (H2O2) to oxygen and water; therefore, the activity of CAT was evaluated according to by the exponential decomposition of H2O2 at 240 nm. […] UV-160-Shimadzu recording spectrophotometer was used to record absorbances. […]"}, "ED-2 (Kupffer cells)": {"test_system": "ED-2 (Kupffer cells)", "assay": "Immunohistochemical staining of liver sections, ED-2 positive cells (Kupffer cells)", "details": "mean±SEM, 8 rats", "procedure": "as §1, §3, §2"}, "[3]": {"details": "HCC (DEN/2-AAF) rats + safranal high dose 50 mg/kg b.wt. oral, 12 weeks"}, "[4]": {"details": "HCC (DEN/2-AAF) rats + safranal low dose 25 mg/kg b.wt. oral, 12 weeks"}, "[5]": {"details": "safranal alone 50 mg/kg b.wt. oral, no DEN (group 2)"}},
  "note": "Marks after values point to notes of the source that are not given here.",
  "data": [
    {"compound": "CC1=C(C=O)C(C)(C)CC=C1", "note": "[Safranal, 2,6,6-trimethylcyclohexa-1,3-diene-1-carbaldehyde]", "values": [
      {"measurement": "number of GST-p positive foci and area/cm^2", "setting": "[1]; safranal treatment after DEN exposure (groups 4-5, 25/50 mg/kg b.wt.)", "result": "significantly reduced the number of GST-p positive foci and the area/cm^2"},
      {"measurement": "GST-p positive foci", "setting": "[1]; safranal treatment alone (group 2)", "result": "did not induce formation of such foci"},
      {"measurement": "iNOS positive cells", "setting": "iNOS; [3]", "result": "2.57 ± 0.30^b positive cells/field"},
      {"measurement": "iNOS positive cells", "setting": "iNOS; [4]", "result": "5.09 ± 0.26^a&b positive cells/field"},
      {"measurement": "iNOS positive cells", "setting": "iNOS; [5]", "result": "0.87 ± 0.04", "unit": "positive cells/field"},
      {"measurement": "P.Carbonyl", "setting": "[2]; [3]", "result": "1.45 ± 0.06", "unit": "nmol/mg protein"},
      {"measurement": "P.Carbonyl", "setting": "[2]; [4]", "result": "1.61 ± 0.06", "unit": "nmol/mg protein"},
      {"measurement": "P.Carbonyl", "setting": "[2]; [5]", "result": "1.52 ± 0.03", "unit": "nmol/mg protein"},
      {"measurement": "ED-2 positive cells", "setting": "ED-2 (Kupffer cells); [3]", "result": "46.44 ± 3.12^b positive cells/field"},
      {"measurement": "ED-2 positive cells", "setting": "ED-2 (Kupffer cells); [4]", "result": "46.75 ± 3.04^b positive cells/field"},
      {"measurement": "ED-2 positive cells", "setting": "ED-2 (Kupffer cells); [5]", "result": "39.30 ± 1.77", "unit": "positive cells/field"}
    ]}
  ]
}
